Experiments:
[1] = Cmax in rat plasma; assay type: ADME, organism-based
Rattus norvegicus [2] = experiment: Compound was evaluated in vivo for its activity in the rat pyresis assay.; assay type: functional
Rattus norvegicus [3] = organism: Rattus norvegicus; experiment: Clearance in rat plasma; assay type: functional, organism-based
[4] = target: T1, Prostaglandin G/H synthase 2 (Rattus norvegicus, UniProt P35355); experiment: In vitro inhibition of Prostaglandin G/H synthase 2
T1 sequence (P35355 whole entry): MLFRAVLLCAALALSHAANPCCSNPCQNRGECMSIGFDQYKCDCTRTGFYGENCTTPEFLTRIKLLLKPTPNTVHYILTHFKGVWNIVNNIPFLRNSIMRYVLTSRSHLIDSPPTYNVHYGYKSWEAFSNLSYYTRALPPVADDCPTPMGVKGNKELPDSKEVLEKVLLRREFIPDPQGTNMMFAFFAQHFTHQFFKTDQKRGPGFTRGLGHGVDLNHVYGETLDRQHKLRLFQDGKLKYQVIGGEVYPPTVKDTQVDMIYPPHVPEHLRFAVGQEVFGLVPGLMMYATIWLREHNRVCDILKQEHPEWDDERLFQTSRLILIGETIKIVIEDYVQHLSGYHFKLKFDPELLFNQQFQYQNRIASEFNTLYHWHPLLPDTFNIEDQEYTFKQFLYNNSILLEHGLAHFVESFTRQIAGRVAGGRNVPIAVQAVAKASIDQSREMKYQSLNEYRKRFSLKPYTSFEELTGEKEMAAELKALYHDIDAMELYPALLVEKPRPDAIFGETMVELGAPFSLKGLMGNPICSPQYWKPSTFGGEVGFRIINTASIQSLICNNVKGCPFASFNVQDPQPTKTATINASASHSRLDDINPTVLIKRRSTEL

[5] = target: T2, Prostaglandin G/H synthase 1 (Rattus norvegicus, UniProt Q63921); experiment: In vitro inhibition of Prostaglandin G/H synthase 1
T2 sequence (Q63921 whole entry): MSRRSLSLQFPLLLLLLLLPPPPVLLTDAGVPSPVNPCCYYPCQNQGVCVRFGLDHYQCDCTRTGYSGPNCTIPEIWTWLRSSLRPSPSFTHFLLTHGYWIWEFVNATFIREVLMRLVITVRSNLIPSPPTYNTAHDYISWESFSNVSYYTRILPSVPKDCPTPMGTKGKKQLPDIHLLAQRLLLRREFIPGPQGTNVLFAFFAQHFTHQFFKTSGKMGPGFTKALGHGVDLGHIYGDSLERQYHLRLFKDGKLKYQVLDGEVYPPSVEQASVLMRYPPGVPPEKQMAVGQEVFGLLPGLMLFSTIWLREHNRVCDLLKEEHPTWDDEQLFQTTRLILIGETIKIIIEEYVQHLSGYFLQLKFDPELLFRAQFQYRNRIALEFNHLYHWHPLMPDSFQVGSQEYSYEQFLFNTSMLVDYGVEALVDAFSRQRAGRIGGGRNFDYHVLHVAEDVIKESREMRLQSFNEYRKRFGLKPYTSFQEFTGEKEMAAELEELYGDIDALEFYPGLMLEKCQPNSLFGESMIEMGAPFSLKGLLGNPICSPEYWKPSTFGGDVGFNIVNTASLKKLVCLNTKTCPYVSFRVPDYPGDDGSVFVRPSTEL

Rattus norvegicus [6] = experiment: Compound was evaluated in vivo for its activity in the rat paw edema assay.; assay type: functional

Row | SMILES | Cmax [1] [µM] | ED50 (Rattus norvegicus [2]) [mg/kg] | CL (mL.min-1.kg-1) (Rattus norvegicus [3]) | IC50 [4] [µM] | IC50 [5] [µM] | ED30 (Rattus norvegicus [6]) [mg/kg]
1 | COc1ccc2c(c1)c(C[C@@H](C)CC(=O)O)c(C)n2Cc1ccc(Br)cc1 | 24.3 | 1.9 | 2.8 | 0.06 | > 10 | 0.4
2 | COc1ccc2c(c1)c(CC(=O)O)c(C)n2C(=O)c1ccc(Cl)cc1 [INDOMETHACIN] |  | 1 |  |  |  | 0.4
3 | COc1ccc2c(c1)c(CC(C)CC(=O)O)c(C)n2Cc1ccc(Br)cc1 (configuration not stated) |  |  | 5.7 | 0.05 | > 10 | 0.4
4 | COc1ccc2c(c1)c(C[C@H](C)CC(=O)O)c(C)n2Cc1ccc(Br)cc1 | 14.4 |  | 21 | 0.02 | > 10 | > 3
